Some results are limits rather than exact numbers.

Our source for the IC50 values is ChEMBL document CHEMBL1145312, “Structure-activity relationships of triazolopyridine oxazole p38 inhibitors: identification of candidates for clinical development” (Bioorg Med Chem Lett, 2006).

The target in test [1] is Protein kinase C alpha type (Homo sapiens, UniProt P17252). The test is described as follows: Inhibition of PKCalpha.
The nature of test [2]: Inhibition of PKC.
A short description of test [3]: Inhibition of PI3K.
Test [4] concerns the target Mitogen-activated protein kinase 1 (Homo sapiens, UniProt P28482). Briefly: Inhibition of ERK2.
Test [5] can be described thus: Inhibition of phosphorylase kinase.
For test [6], the target named is Tyrosine-protein kinase CSK (Homo sapiens, UniProt P41240). Briefly: Inhibition of CSK.
Test [7] concerns the target RAC-alpha serine/threonine-protein kinase (Homo sapiens, UniProt P31749). Briefly: Inhibition of PKBalpha.
Test [8] concerns the target c-Jun N-terminal kinase, JNK (Homo sapiens, UniProt P45983+P53779+P45984). The test is described as follows: Inhibition of JNK. It is filed as protein assay.
For test [9], the target named is Ribosomal protein S6 kinase alpha-5 (Homo sapiens, UniProt O75582). The test is described as follows: Inhibition of MSK1.
Test [10] deals with Rho-associated protein kinase 2 (Homo sapiens, UniProt O75116). Briefly: Inhibition of ROCK2.
Test [11] addresses T1, Serine/threonine-protein kinase Chk1 (Homo sapiens, UniProt O14757).
T1 sequence (O14757 whole entry): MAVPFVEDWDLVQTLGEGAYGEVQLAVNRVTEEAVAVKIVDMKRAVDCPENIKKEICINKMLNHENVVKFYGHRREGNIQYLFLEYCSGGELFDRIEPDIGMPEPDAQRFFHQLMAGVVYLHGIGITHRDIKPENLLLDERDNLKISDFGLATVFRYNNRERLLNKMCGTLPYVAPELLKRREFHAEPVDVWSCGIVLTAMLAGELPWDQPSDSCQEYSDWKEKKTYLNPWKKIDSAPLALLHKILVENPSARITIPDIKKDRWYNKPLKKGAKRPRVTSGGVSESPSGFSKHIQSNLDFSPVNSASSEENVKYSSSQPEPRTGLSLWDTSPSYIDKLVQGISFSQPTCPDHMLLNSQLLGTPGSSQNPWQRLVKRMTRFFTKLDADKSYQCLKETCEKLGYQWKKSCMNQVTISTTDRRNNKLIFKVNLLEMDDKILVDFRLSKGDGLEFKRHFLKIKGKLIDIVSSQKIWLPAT
Briefly: Inhibition of CHK1.

Test [12] deals with AMP-activated protein kinase, AMPK. The test is described as follows: Inhibition of AMPK. It counts as protein-complex assay.
Test [13] deals with Glycogen synthase kinase-3 beta (Homo sapiens, UniProt P49841). The test is described as follows: Inhibition of GSK3-beta.
The target of test [14] is T2, Mitogen-activated protein kinase 13 (Homo sapiens, UniProt O15264).
T2 sequence (O15264 whole entry): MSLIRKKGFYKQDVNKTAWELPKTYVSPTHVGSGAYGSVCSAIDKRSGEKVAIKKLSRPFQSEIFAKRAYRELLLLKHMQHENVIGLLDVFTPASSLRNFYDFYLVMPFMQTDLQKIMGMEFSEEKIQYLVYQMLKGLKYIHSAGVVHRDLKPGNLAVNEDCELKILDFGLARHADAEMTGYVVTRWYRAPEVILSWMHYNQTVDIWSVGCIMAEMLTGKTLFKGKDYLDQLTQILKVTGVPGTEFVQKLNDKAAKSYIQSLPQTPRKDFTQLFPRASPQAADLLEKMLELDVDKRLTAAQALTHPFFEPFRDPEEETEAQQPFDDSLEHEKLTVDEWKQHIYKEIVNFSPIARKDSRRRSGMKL
Briefly: Inhibition of p38delta.

Test [15] addresses Mitogen-activated protein kinase 14 (Homo sapiens, UniProt Q16539). Briefly: Inhibition of p38alpha.
Test [16] has as its target T3, MAP kinase-activated protein kinase 5 (Homo sapiens, UniProt Q8IW41).
T3 sequence (Q8IW41 whole entry): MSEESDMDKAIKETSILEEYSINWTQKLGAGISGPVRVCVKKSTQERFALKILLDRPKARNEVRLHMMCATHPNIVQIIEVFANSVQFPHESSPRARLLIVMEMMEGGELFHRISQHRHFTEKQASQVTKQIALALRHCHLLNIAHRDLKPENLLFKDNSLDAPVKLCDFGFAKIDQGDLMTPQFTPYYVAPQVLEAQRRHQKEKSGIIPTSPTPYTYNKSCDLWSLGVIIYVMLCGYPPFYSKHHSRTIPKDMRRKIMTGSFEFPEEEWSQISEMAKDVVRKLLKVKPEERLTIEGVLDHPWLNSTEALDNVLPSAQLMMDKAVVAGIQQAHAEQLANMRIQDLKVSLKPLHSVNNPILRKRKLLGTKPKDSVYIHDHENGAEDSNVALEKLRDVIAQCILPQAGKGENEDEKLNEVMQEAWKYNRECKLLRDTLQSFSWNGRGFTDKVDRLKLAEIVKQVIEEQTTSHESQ
The test is described as follows: Inhibition of PRAK.

Test [17] concerns the target Dual specificity mitogen-activated protein kinase kinase 1 (Homo sapiens, UniProt Q02750). Briefly: Inhibition of MKK1.
For test [18], the target named is Tyrosine-protein kinase Lck (Homo sapiens, UniProt P06239). The test is described as follows: Inhibition of Lck.
The target of test [19] is Cyclin-dependent kinase 2 (Homo sapiens, UniProt P24941). The test is described as follows: Inhibition of CDK2.
The subject of another test is Monocyte. Briefly: Inhibition of LPS-induced TNFalpha production in human monocytes. It counts as functional, cell-based.
Test [20] addresses T4, 3-phosphoinositide-dependent protein kinase 1 (Homo sapiens, UniProt O15530).
T4 sequence (O15530 whole entry): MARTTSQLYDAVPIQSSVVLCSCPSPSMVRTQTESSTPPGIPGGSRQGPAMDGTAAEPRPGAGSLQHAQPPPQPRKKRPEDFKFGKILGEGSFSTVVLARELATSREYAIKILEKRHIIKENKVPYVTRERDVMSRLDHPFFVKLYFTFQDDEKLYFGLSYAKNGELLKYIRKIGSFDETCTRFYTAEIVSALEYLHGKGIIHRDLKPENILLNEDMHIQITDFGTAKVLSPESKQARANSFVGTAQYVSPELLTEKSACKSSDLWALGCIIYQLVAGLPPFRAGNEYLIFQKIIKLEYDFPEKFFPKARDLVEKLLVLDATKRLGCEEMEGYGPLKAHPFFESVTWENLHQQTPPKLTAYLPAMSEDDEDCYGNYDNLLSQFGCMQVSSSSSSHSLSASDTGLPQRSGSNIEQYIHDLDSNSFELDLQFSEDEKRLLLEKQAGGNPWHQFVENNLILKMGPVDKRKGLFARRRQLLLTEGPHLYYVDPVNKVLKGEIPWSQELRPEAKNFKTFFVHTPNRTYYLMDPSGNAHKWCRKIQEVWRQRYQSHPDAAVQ
Briefly: Inhibition of PDK1.

In test [21] the target is Dual specificity tyrosine-phosphorylation-regulated kinase 1A (Homo sapiens, UniProt Q13627). Briefly: Inhibition of DYRK1a.
Test [22] deals with Ribosomal protein S6 kinase (P70S6K) (Homo sapiens, UniProt P23443+Q9UBS0). Briefly: Inhibition of P70S6K. It is filed as protein-complex assay.
Sequence of Ribosomal protein S6 kinase (P70S6K) (Q9UBS0 whole entry): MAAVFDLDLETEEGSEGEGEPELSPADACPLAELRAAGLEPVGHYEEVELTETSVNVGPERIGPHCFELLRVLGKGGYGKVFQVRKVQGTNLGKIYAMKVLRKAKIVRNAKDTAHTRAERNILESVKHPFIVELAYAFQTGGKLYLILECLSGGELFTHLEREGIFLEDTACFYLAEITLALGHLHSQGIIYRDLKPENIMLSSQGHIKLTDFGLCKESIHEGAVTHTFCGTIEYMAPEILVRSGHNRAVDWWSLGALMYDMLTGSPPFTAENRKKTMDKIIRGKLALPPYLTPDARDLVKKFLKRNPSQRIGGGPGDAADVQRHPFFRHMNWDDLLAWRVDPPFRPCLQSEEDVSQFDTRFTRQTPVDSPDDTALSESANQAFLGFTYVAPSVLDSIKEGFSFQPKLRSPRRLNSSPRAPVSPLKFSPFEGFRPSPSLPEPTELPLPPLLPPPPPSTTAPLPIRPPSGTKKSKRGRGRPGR
Sequence of Ribosomal protein S6 kinase (P70S6K) (P23443 whole entry): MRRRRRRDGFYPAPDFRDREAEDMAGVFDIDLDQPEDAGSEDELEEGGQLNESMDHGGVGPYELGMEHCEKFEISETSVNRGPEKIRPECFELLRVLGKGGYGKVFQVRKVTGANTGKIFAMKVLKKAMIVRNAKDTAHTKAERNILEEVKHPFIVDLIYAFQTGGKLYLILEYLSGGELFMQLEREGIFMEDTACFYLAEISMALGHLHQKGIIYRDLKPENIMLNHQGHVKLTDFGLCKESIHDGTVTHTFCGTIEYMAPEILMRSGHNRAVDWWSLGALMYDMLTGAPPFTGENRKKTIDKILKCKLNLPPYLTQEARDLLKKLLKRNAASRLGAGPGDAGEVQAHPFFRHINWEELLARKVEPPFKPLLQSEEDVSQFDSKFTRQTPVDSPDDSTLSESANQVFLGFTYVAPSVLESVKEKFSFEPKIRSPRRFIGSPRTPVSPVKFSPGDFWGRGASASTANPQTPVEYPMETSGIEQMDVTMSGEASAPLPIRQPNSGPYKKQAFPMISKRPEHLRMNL

Sequence of Mitogen-activated protein kinase 14 (Q16539 whole entry): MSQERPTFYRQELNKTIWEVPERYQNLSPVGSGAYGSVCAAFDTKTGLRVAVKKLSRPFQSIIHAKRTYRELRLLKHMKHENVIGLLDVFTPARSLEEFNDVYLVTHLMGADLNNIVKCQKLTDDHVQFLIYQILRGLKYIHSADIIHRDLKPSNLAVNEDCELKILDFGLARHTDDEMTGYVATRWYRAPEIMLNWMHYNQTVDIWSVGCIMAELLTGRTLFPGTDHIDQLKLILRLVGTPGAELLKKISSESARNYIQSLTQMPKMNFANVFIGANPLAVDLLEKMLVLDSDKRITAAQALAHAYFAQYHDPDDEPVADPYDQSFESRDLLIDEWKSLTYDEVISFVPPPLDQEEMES
Sequence of Dual specificity mitogen-activated protein kinase kinase 1 (Q02750 whole entry): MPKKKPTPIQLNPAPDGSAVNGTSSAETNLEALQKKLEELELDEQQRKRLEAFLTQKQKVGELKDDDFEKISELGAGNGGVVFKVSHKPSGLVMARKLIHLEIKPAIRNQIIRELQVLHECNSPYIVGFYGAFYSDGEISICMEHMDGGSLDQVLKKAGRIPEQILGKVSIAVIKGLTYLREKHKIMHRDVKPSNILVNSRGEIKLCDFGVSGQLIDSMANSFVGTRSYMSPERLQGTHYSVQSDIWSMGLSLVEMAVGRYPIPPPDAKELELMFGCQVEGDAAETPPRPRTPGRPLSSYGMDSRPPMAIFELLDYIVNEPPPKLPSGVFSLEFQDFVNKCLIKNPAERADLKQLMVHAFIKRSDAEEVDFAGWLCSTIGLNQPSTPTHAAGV
Sequence of Tyrosine-protein kinase CSK (P41240 whole entry): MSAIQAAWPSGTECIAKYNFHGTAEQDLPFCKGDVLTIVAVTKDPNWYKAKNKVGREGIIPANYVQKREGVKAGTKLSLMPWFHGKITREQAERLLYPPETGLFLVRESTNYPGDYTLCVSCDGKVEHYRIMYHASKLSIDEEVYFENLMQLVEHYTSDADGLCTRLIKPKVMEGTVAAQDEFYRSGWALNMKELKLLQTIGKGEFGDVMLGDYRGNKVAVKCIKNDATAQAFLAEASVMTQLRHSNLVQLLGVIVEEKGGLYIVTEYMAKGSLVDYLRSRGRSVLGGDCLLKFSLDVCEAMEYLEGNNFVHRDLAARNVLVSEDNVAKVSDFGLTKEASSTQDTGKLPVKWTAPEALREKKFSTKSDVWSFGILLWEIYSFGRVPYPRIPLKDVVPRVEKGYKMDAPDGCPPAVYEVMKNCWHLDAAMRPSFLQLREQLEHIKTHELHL
Sequence of RAC-alpha serine/threonine-protein kinase (P31749 whole entry): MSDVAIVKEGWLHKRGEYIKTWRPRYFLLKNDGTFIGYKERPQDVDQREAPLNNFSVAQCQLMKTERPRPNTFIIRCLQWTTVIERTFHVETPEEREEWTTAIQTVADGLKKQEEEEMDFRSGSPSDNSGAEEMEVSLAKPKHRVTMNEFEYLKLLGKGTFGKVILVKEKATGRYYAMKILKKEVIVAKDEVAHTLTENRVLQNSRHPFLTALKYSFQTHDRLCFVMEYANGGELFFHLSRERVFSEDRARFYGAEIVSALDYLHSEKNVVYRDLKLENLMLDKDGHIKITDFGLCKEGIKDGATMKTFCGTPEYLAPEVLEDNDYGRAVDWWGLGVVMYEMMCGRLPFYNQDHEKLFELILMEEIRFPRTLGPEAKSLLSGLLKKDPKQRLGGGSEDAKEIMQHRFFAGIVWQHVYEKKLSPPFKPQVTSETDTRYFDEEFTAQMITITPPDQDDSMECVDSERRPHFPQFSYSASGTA
Sequence of Tyrosine-protein kinase Lck (P06239 whole entry): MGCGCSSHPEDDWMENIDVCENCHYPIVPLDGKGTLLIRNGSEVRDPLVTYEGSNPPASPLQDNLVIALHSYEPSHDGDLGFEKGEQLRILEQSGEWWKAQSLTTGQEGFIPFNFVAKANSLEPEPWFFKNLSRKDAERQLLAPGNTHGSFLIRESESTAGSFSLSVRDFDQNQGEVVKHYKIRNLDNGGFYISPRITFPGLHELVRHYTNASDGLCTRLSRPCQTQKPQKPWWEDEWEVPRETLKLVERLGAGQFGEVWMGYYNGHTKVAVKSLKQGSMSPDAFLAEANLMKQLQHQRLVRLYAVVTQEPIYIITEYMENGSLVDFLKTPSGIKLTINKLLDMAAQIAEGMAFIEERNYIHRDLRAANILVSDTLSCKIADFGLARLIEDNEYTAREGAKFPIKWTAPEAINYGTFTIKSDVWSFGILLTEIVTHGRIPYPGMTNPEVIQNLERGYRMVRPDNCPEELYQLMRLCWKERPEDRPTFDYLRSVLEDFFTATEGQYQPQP
Sequence of Glycogen synthase kinase-3 beta (P49841 whole entry): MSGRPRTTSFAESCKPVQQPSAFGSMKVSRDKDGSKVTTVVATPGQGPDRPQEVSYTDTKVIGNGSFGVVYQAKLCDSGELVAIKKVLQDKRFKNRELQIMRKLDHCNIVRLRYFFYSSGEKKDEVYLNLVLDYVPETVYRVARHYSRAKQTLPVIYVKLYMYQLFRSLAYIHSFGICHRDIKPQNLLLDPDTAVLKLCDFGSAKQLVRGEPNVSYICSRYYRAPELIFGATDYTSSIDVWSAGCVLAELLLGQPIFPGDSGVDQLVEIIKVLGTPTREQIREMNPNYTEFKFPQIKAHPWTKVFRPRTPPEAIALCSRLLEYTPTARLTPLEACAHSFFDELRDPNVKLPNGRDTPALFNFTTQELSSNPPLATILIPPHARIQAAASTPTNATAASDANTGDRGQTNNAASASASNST
Sequence of Mitogen-activated protein kinase 1 (P28482 whole entry): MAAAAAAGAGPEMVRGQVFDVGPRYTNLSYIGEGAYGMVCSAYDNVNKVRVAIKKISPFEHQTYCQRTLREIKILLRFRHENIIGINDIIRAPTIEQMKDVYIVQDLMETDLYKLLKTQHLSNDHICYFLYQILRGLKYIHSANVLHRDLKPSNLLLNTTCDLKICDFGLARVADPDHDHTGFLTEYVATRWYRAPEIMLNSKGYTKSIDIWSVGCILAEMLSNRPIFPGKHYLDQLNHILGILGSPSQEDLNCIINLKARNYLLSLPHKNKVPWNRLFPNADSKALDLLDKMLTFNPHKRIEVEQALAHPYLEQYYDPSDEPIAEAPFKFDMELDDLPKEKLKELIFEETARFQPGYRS

A word on the IC50: it is the concentration that gives 50% inhibition. The low end stands for higher potency, the high end for lower potency. In the case of `CC(C)(C)c1nnc2ccc(-c3ocnc3-c3ccc(F)cc3F)cn12`, the IC50 in [1], in test [2], in test [3], in test [4], in test [5] and in [6] was more than 10 µM each time. Besides, the half-maximal inhibitory concentration (IC50) in test [7], in test [8], in test [9], in [10], in test [11] and in test [12] was more than 10 µM each time. Also, the IC50 is more than 10 µM in test [13]; more than 10 µM in [14]; 1.1 nM in test [15]; more than 10 µM in test [16]; more than 10 µM in [17]; more than 10 µM in test [18]. Further, the IC50 in [19] was more than 10 µM; with Monocyte, 12.6 nM; in test [20], more than 10 µM; in test [21], more than 10 µM; in [22], more than 10 µM.
For `CC(C)(C)c1nnc2ccc(-c3ocnc3-c3cc(F)c(F)cc3F)cn12`, the concentration for half-maximal inhibition (IC50) in [1], in [2], in [3], in test [4], in test [5] and in test [6] was more than 10 µM in each case. Moreover, the IC50 in test [7], in test [8], in test [9], in test [10], in test [11] and in test [12] was more than 10 µM throughout. Moreover, the IC50 in test [13] is more than 10 µM; in test [14], more than 10 µM; in [15], 1.8 nM; in test [16], more than 10 µM; in test [17], more than 10 µM; in test [19] it was more than 10 µM. Also, the IC50 in the test on Monocyte was 8.3 nM; in test [20], more than 10 µM; in test [21] it was more than 10 µM; in [22], more than 10 µM.
Take `CCNc1nnc2ccc(-c3ocnc3-c3ccc(F)cc3)cn12`: the IC50 in test [1], in [2], in test [3], in test [4], in test [5] and in test [6] was more than 10 µM throughout. Further, the IC50 in test [7], in test [8], in [9], in [10], in test [11] and in test [12] was more than 10 µM throughout. Further, the IC50 was more than 10 µM in test [13]; more than 10 µM in [14]; 7.6 nM in test [15]; more than 10 µM in [16]; more than 10 µM in test [17]; more than 10 µM in test [18]. Also, the IC50 was more than 10 µM in test [19]; 52 nM in the test with Monocyte; more than 10 µM in test [20]; more than 10 µM in [21]; more than 10 µM in test [22].
On to `CC(C)c1nnc2ccc(-c3c[nH]nc3-c3cc(F)ccc3F)cn12`, for which the IC50 in test [1], in test [2], in test [3], in [4], in test [5] and in test [6] was more than 10 µM each time. The IC50 in test [7], in test [8], in test [9], in test [10], in test [11] and in [12] was more than 10 µM in each case. In addition, the half-maximal inhibitory concentration (IC50) is more than 10 µM in test [13]; more than 10 µM in test [14]; 2.8 nM in test [15]; more than 10 µM in test [16]; more than 10 µM in [17]; more than 10 µM in [18]. The IC50 is more than 10 µM in test [19]; 14.1 nM in the test on Monocyte; more than 10 µM in test [20]; more than 10 µM in [21]; more than 10 µM in test [22].
For the compound `CC(C)c1nnc2ccc(-c3ocnc3-c3ccccc3)cn12`, the IC50 in [1], in [2], in [3], in test [4], in test [5] and in test [6] was more than 10 µM in each case. The IC50 in test [7], in [8], in test [9], in [10], in test [11] and in test [12] was more than 10 µM in each case. Further, the IC50 in test [13] was more than 10 µM; in test [14] it was more than 10 µM; in test [15], 9.6 nM; in test [16] it was more than 10 µM; in test [17] it was more than 10 µM; in test [19], more than 10 µM. For the same compound, the IC50 in the test on Monocyte is 71.4 nM; in test [20], more than 10 µM; in test [21], more than 10 µM; in test [22], more than 10 µM.
